# From article PMC4290489, “Identification of multiple salicylic acid-binding proteins using two high throughput screens” (Frontiers in Plant Science, 2015)
# Key:
# Format in all cases: binding
# SHM4 = molecular target: T1, SHM4 (Arabidopsis thaliana, UniProt O23254); experiment: SPR competition on 3AESA chip; competition of 4AzSA photo-crosslinking; details: 1-5 mM SA, HBS-EP pH 7.4 (SPR); competes with 3AESA and 4AzSA
# T1 construct: N-terminal His6 (pET28a), from E. coli
# T1 sequence (O23254 1-471): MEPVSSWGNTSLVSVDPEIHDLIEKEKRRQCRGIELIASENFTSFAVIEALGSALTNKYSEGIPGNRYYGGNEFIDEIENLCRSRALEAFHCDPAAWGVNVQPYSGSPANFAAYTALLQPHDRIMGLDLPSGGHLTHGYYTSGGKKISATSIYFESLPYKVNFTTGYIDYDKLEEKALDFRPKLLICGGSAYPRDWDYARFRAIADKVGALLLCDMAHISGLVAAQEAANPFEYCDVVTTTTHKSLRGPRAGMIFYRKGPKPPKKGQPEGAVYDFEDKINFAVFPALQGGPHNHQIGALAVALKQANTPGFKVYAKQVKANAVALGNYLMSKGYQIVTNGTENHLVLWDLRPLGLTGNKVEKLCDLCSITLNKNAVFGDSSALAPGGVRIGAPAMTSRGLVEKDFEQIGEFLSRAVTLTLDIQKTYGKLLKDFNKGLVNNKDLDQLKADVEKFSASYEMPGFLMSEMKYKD
# TRX-m1 = molecular target: T2, TRX-m1 (Arabidopsis thaliana, UniProt O48737); experiment: as above; details: 1-5 mM SA, HBS-EP pH 7.4 (SPR); competes with 3AESA and 4AzSA
# T2 construct: gene At1g03680; N-terminal His6 (pET28a), from E. coli
# T2 sequence (O48737 49-179): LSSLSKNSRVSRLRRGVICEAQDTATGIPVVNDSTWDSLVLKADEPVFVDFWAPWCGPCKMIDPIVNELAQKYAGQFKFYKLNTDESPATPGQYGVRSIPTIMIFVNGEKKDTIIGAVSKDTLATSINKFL
# UGE2 = molecular target: T3, UGE2 (Arabidopsis thaliana, UniProt Q9T0A7); experiment: as above; details: 1-5 mM SA, HBS-EP pH 7.4 (SPR); competes with 3AESA and 4AzSA
# T3 construct: N-terminal His6 (pET28a), from E. coli
# T3 sequence (Q9T0A7 1-350): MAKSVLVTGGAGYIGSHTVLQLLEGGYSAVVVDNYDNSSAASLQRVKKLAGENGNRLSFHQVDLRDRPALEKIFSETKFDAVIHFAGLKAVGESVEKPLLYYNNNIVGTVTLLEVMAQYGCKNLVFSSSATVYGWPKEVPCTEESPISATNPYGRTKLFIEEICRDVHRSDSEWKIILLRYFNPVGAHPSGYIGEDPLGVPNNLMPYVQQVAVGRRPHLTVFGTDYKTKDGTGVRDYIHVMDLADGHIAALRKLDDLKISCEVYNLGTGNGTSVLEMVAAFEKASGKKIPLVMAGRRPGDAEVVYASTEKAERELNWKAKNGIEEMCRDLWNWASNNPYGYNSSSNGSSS
# TPPII = molecular target: T4, TPPII (Arabidopsis thaliana, UniProt F4JVN6); experiment: UV photo-crosslinking, anti-SA immunoblot; details: 50 uM 4AzSA, PBS, on ice, 254 nm UV; covalent; competed by SA
# T4 construct: gene TPP2; N-terminal His6 (pET28a), from E. coli
# T4 sequence (F4JVN6 1-1380): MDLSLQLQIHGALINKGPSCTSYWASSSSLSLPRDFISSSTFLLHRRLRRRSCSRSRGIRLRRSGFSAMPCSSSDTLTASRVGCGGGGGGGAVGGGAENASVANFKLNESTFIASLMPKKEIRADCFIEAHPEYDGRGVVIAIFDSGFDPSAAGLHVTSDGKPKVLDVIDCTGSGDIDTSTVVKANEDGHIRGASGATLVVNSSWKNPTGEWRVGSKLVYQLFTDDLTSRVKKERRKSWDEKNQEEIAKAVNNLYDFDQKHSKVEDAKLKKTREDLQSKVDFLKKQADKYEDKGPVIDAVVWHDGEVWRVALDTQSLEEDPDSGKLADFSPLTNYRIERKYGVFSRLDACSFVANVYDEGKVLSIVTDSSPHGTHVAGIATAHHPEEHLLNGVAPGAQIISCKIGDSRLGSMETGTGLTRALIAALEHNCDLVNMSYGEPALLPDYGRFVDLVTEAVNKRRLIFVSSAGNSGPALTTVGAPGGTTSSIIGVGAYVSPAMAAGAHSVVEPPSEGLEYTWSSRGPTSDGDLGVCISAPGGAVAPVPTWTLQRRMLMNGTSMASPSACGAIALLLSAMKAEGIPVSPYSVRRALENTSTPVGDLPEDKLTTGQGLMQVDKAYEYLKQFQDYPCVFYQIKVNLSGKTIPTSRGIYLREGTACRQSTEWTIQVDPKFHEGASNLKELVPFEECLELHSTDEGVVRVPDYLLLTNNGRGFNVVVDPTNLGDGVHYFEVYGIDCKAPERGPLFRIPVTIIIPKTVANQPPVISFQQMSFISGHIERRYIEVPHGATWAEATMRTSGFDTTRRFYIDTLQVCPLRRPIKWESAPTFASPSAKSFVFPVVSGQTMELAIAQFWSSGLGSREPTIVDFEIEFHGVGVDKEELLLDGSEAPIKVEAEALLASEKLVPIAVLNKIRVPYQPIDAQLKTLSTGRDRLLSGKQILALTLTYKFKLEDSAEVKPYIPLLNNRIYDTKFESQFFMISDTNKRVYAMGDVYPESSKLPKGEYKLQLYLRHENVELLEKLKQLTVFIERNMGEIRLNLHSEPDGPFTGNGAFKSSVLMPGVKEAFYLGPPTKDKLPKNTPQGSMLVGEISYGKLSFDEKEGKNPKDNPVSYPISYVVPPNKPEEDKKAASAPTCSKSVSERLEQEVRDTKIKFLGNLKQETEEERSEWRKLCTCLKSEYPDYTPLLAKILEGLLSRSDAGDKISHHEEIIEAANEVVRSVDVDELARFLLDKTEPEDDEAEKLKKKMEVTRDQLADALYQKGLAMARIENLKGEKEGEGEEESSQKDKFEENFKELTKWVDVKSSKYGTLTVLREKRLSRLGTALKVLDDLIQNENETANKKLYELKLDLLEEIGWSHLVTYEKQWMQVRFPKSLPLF
# GSR2 = molecular target: T5, GSR2 (Arabidopsis thaliana, UniProt Q8LCE1); experiment: UV photo-crosslinking, anti-SA immunoblot; details: 50 uM 4AzSA, PBS, on ice, 254 nm UV; covalent; competed by SA
# T5 construct: gene GLN1-2; N-terminal His6 (pET28a), from E. coli
# T5 sequence (Q8LCE1 1-356): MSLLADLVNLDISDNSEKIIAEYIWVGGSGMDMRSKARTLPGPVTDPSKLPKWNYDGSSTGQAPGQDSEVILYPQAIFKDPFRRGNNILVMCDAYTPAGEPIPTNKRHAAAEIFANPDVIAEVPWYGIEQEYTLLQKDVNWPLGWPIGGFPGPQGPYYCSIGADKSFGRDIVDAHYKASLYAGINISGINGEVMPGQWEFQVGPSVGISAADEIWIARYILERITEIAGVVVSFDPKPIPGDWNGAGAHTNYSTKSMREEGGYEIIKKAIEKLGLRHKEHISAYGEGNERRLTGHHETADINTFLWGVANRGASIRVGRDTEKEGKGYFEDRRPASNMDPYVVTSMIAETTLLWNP
structure (smiles),measurement,setting,value
O=C(O)c1ccccc1O [SA],SPR competition on 3AESA chip; competition of 4AzSA photo-crosslinking,SHM4,"SA competes with 3AESA and 4AzSA for binding by TRX-m1, TPPII, SHM4, and LOX2"
same,SPR competition on 3AESA chip; competition of 4AzSA photo-crosslinking,TRX-m1,"SA competes with 3AESA and 4AzSA for binding by TRX-m1, TPPII, SHM4, and LOX2"
same,SPR competition on 3AESA chip; competition of 4AzSA photo-crosslinking,UGE2,"bound 3AESA and crosslinked to 4AzSA in an SA-inhibitable manner, indicating that they are SABPs"
[N-]=[N+]=Nc1ccc(C(=O)O)c(O)c1 [4AzSA],"UV photo-crosslinking, anti-SA immunoblot",TPPII,These five proteins also bound and crosslinked to 4AzSA
same,"UV photo-crosslinking, anti-SA immunoblot",GSR2,"bound 3AESA and crosslinked to 4AzSA in an SA-inhibitable manner, indicating that they are SABPs"
